The target of assay [1] is T1, NK-1 (Homo sapiens, UniProt P25103).
T1 construct: endogenous in cells; host or cells: U373 cells (crude membranes)
The assay can be described thus: NK1 radioligand binding assay. The note with it: U373 membrane preparation, [125I]Substance P. The method, then: (§1) NK-1 Binding assay. Crude membrane suspensions were prepared for the NK1 and SERT radioligand binding assays from U373 cells or recombinant HEK-293 cells expressing hSERT, respectively. […] The medium is removed from the flasks and the cells rinsed with HBSS without Ca and without Mg. The cells are then incubated for 5-10 minutes in 10 mM Tris-Cl, pH 7.5, 5 mM EDTA before the cells are lifted with a combination of pipetting and scraping, as needed. To prepare membranes, the cell suspension is collected into centrifuge bottles and homogenized for 30 seconds with a Polytron homogenizer. The suspension is centrifuged for 30 min 32,000×g, 4° C., then the supernatant is decanted and the pellet resuspended and homogenized in 50 mM Tris-Cl, pH 7.5, 1 mM EDTA for 10 seconds. The suspension is then centrifuged again for 30 min 32,000×g, 4° C. The supernatant is decanted and the pellet resuspended in 50 mM Tris-Cl, pH 7.5, 1 mM EDTA and briefly homogenized. A Bradford assay (Bio-rad) is performed and the membrane preparation diluted to 2 mg/ml with 50 mM Tris-Cl, pH 7.5, 1 mM EDTA. Aliquots are prepared, and then frozen and stored at −80° C.
(§2) NK1 radioligand binding assay. Compounds are dissolved in 100% DMSO at a concentration 100× the desired highest assay concentration, serially diluted 1:3 in 100% DMSO, and 0.6 ul/well of each solution is dispensed to a Nunc polypropylene, round bottom, 384 well plate. […] The contents of the assay plate are then transferred to a Millipore MultiscreenHTS GF/B filter plate which has been pretreated with 0.5% PEI for at least one hour. The plate is vacuum filtered and washed with 7 washes of 100 ul/well of 20 mM Tris-Cl, pH 7.5, 0.5% (w/v) BSA chilled to 4° C. The filtration and washing is completed in less than 90 s. The plates are air-dried overnight, 12 ul/well of MicroScint scintillation fluid added, and the plates counted in a Trilux.
(§3) Data analysis. […] Each plate is run in triplicate, and the concentration response curve thus generated is fit using the four-parameter dose response equation, Y=Bottom+(Top-Bottom)/(1+10^((Log IC50−X)*HillSlope)) in order to determine the IC50 value for each compound. The radioligand concentration chosen for each assay corresponds to the Kd concentration determined through saturation binding analysis for each assay.

The target in assay [2] is T2, hSERT (Homo sapiens, UniProt P31645).
T2 construct: expressed in transfected cells; host or cells: HEK-293 cells (crude membranes)
T2 sequence (P31645 whole entry): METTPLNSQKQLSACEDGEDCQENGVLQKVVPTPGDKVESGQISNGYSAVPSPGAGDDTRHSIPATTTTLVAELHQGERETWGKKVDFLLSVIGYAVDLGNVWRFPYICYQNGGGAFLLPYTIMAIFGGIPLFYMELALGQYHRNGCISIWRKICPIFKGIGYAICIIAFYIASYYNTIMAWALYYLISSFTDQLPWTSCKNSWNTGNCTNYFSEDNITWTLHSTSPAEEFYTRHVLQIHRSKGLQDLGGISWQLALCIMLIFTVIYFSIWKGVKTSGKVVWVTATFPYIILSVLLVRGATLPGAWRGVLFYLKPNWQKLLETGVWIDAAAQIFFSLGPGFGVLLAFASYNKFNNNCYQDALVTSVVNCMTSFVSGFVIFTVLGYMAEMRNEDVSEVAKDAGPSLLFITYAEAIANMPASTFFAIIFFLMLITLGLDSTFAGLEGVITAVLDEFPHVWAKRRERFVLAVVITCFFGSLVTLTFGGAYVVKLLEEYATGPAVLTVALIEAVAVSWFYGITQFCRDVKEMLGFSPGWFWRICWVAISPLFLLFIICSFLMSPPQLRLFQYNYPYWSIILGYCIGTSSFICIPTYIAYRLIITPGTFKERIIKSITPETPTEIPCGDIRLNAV
The assay can be described thus: SERT radioligand binding assay. The method, then: as §1
as §2, with “SERT” for “NK1”, “0.4” for “0.6”, “50” for “20”, “120 mM NaCl, 5 mM KCl” for “0.5% (w/v) BSA”
as §3

The mark [3] stands for this setting: HEK-hSERT membrane preparation, [125I]RTI-55, read-out: SERT IC50.

Where two headings read alike, the source gives them in different places. A value given as a limit tells only on which side of the number the result lay.

T1 sequence (P25103 whole entry): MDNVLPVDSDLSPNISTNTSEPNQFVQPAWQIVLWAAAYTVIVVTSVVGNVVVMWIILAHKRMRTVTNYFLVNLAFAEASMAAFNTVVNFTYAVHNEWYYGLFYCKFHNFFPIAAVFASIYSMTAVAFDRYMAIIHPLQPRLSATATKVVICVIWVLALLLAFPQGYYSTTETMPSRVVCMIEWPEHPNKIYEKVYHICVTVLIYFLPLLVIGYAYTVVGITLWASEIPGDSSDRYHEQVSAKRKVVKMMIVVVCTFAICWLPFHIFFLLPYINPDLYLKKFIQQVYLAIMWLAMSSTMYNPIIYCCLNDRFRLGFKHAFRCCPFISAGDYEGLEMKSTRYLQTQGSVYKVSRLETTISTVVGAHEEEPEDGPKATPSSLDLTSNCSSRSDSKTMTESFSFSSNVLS

For the compound `CC(OCC1(c2ccc(F)cc2)CCN(C)CC1)c1cc(C(F)(F)F)cc(Br)n1` (stereo not shown) [Example 33, 2-bromo-6-(1-((4-(4-fluorophenyl)-1-methylpiperidin-4-yl)methoxy)ethyl)-4-(trifluoromethyl)p], the half-inhibitory concentration (IC50) in assay [1] and in assay [2] was 0.01 to 100 nM throughout.
In the case of `N#Cc1ccc(-c2cncc(COCC3(c4ccccc4)CCNCC3)c2)cc1` [Example 25, 4-(5-(((4-phenylpiperidin-4-yl)methoxy)methyl)pyridine-3yl)benzonitrile], the results for the IC50 in assay [1] and in assay [2] (setting [3]) were more than 300 nM and 0.01 to 100 nM, respectively.
For the compound `CN1CCC(COCc2cc(C(F)(F)F)cc(-c3ccc(F)cc3)n2)(c2ccccc2)CC1` [Example 42], the IC50 in assay [1] and in assay [2] was 0.01 to 100 nM in each case.
For `COc1cc(OC)nc(COCC2(c3ccccc3)CCNCC2)n1` [Example 30, 4,6-dimethoxy-2(((4-phenylpiperidin-4-yl)methoxy)methyl)pyrimidine], the IC50 in assay [1] was more than 300 nM; in assay [2] (setting [3]) it was 100 to 300 nM.
In the case of `Cc1cc(-c2cc(C(F)(F)F)cc(C(C)OCC3(c4ccc(F)cc4)CCN(C)CC3)n2)ccc1C#N` (stereo not shown) [Example 97], the 50% inhibitory concentration (IC50) fell in the range of 0.01 to 100 nM in assay [1] and 100 to 300 nM in assay [2].
For the compound `CN1CCC(COCc2cc(C(F)(F)F)cc(-c3ccc(C#N)cc3)n2)(c2cccc(F)c2)CC1` [Example 85], the IC50 in assay [1] and in assay [2] was 0.01 to 100 nM throughout.
For `CC(OCC1(c2ccc(F)cc2)CCN(C)CC1)c1cc(C(F)(F)F)cc(-c2ccc(C#N)cc2)n1` (stereo not shown) [Example 96], the IC50 in assay [1] and in assay [2] was 0.01 to 100 nM throughout.
In the case of `CC(OCC1(c2ccc(F)cc2)CCN(C)CC1)c1cc(C(F)(F)F)cc(N2CCC[C@@H]2C)n1` (stereo partly shown) [Example 95], the IC50 in assay [1] and in assay [2] was 0.01 to 100 nM in each case.
In the case of `CC1CCCN1c1cc(C(F)(F)F)cc(COCC2(c3ccc(F)cc3)CCN(C)CC2)n1` (stereo not shown) [Example 90], the IC50 in assay [1] and in assay [2] was 0.01 to 100 nM each time.
On to `C[C@@H]1CCCN1c1cc(C(F)(F)F)cc(COCC2(c3ccc(F)cc3)CCN(C)CC2)n1` [Example 94], for which the IC50 in assay [1] and in assay [2] was 0.01 to 100 nM each time.
As for `CC(OCC1(c2ccccc2)CCNCC1)c1cc(C(F)(F)F)cc(C(F)(F)F)n1` (stereo not shown) [Example 27, 2-(1-((4-phenylpiperidin-4-yl)methoxy)ethyl)-4,6-bis(trifluoromethyl)pyridine], the IC50 in assay [1] and in assay [2] (setting [3]) was 0.01 to 100 nM each time.
Turning to `FC(F)(F)c1cc(COCC2(c3ccccc3)CCNCC2)nc(N2CCOCC2)c1` [Example 15], the IC50 in assay [1] lay within 0.01 to 100 nM; in assay [2] (setting [3]), 100 to 300 nM.
As for `CC(OCC1(c2ccccc2)CCN(C)CC1)c1cc(C(F)(F)F)cc(-c2ccc(C#N)cc2)n1` (stereo not shown) [Example 46], the IC50 in assay [1] and in assay [2] was 0.01 to 100 nM throughout.
In the case of `Cc1cc(-c2cc(C(F)(F)F)cc(COCC3(c4ccccc4)CCN(C)CC3)n2)ccc1C#N` [Example 60], the IC50 in assay [1] and in assay [2] was 0.01 to 100 nM throughout.
Consider `CN1CCC(COCc2cc(C(F)(F)F)cc(-c3ncon3)n2)(c2ccc(F)cc2)CC1` [Example 37, 3-(6-(((4-(4-fluorophenyl)-1-methylpiperidin-4-yl)methoxy)methyl)-4-(trifluoromethyl)pyridin-2-yl)-1,2,4-oxadiazole], for which the IC50 in assay [1] was in the range of 100 to 300 nM; in assay [2] it was 0.01 to 100 nM.
In the case of `c1ccc(C2(COCc3cncc(-c4ccco4)c3)CCNCC2)cc1` [Example 9], the IC50 in assay [1] is more than 300 nM; in assay [2] (setting [3]) it was 0.01 to 100 nM.
As to `COc1ccc(-c2cc(C(F)(F)F)cc(COCC3(c4ccccc4)CCN(C)CC3)n2)cc1` [Example 38, 2-(4-methoxyphenyl)-6-(((1-methyl-4-phenylpiperidin-4-yl)methoxy)methyl)-4-(trifluoromethyl)pyridine], the 50% inhibitory concentration (IC50) in assay [1] and in assay [2] was 0.01 to 100 nM each time.
Consider `CN1CCC(COCc2cc(C(F)(F)F)cc(-c3ccc(F)cc3F)n2)(c2ccc(F)cc2)CC1` [Example 62], for which the IC50 in assay [1] and in assay [2] was 0.01 to 100 nM in each case.
`CN1CCC(COCc2cc(C(F)(F)F)cc(N3CCC(N4CCCC4)CC3)n2)(c2ccccc2)CC1` [Example 88]: the IC50 in assay [1] is more than 300 nM; in assay [2] (setting [3]) it was 0.01 to 100 nM.
Consider `FC(F)(F)c1cc(COCC2(c3ccccc3)CCNCC2)nc(-c2ccncc2)c1` [Example 2], for which the IC50 in assay [1] and in assay [2] (setting [3]) was 0.01 to 100 nM throughout.
For `CN1CCC(COCc2cc(C(F)(F)F)cc(-c3ccc(C#N)cc3)n2)(c2ccc(C#N)cc2)CC1` [Example 84], the IC50 in assay [1] and in assay [2] was 0.01 to 100 nM throughout.
On to `CC(OCC1(c2ccccc2)CCNCC1)c1cc(C(F)(F)F)cc(N2CCOCC2)n1` (stereo not shown) [Example 23], for which the IC50 in assay [1] and in assay [2] (setting [3]) was 0.01 to 100 nM each time.
With `CC(OCC1(c2ccc(F)cc2)CCN(C)CC1)c1cc(C(F)(F)F)cc(N2CCCC2)n1` (stereo not shown) [Example 86], the IC50 in assay [1] and in assay [2] was 0.01 to 100 nM each time.
On to `CCN(CC)c1cc(C(F)(F)F)cc(COCC2(c3ccc(F)cc3)CCNCC2)n1` [Example 22], for which the IC50 in assay [1] and in assay [2] (setting [3]) was 0.01 to 100 nM each time.
For the compound `Cc1ccc(-c2cc(C(F)(F)F)cc(COCC3(c4ccccc4)CCNCC3)n2)cc1` [Example 4], the IC50 in assay [1] and in assay [2] (setting [3]) was 0.01 to 100 nM in each case.
As to `CN1CCC(COCc2cc(C(F)(F)F)cc(-c3ccc[nH]3)n2)(c2ccc(F)cc2)CC1` [Example 66], the IC50 in assay [1] and in assay [2] was 0.01 to 100 nM in each case.
Turning to `COc1cc(COCC2(c3ccc(F)cc3)CCN(C)CC2)cc(C(F)(F)F)n1` [Example 80], the IC50 in assay [1] and in assay [2] was 0.01 to 100 nM throughout.
As for `COc1cc(COCC2(c3ccc(F)cc3)CCN(C)CC2)cc(-c2ccc(C#N)cc2)n1` [Example 76], the IC50 in assay [1] and in assay [2] was 0.01 to 100 nM in each case.
As to `COC(=O)c1ccc(-c2cc(C(F)(F)F)cc(COCC3(c4ccc(F)cc4)CCN(C)CC3)n2)c(F)c1` [Example 63], the IC50 in assay [1] and in assay [2] was 0.01 to 100 nM each time.
On to `CC(OCC1(c2ccc(F)cc2)CCN(C)CC1)c1cc(C(F)(F)F)cc(N2CC[C@@H](F)C2)n1` (stereo partly shown) [Example 87], for which the IC50 in assay [1] and in assay [2] (setting [3]) was 0.01 to 100 nM in each case.
As to `CN1CCC(COCc2cc(C(F)(F)F)cc(-c3ccc(C#N)cc3)n2)(c2ccc(F)cc2)CC1` [Example 47], the IC50 in assay [1] and in assay [2] was 0.01 to 100 nM each time.
Consider `CCC(CC)Nc1cc(C(F)(F)F)cc(COCC2(c3ccc(F)cc3)CCNCC2)n1` [Example 21], for which the IC50 in assay [1] and in assay [2] (setting [3]) was 0.01 to 100 nM each time.
As to `CN1CCC(COCc2cc(C(F)(F)F)cc(-c3cccn3C(=O)OC(C)(C)C)n2)(c2ccc(F)cc2)CC1` [Example 65], the IC50 lay in the range of 0.01 to 100 nM in assay [1] and 100 to 300 nM in assay [2].
With `N#Cc1cc(C(F)(F)F)cc(COCC2(c3ccccc3)CCNCC2)n1` [Example 31], the IC50 in assay [1] is more than 300 nM; in assay [2] (setting [3]), 0.01 to 100 nM.
As for `N#Cc1ccc(-c2cc(C(F)(F)F)cc(COCC3(c4ccc(F)cc4)CCNCC3)n2)cc1` [Example 7], the IC50 in assay [1] and in assay [2] (setting [3]) was 0.01 to 100 nM throughout.

As a reminder, the IC50 is the concentration that inhibits the measured activity by half.

Values taken from patent US8071778B2, “Substituted heterocyclic ethers and their use in CNS disorders” (Bristol-Myers Squibb Company, priority 2006, dated 2011).
